Experiments:
Assay type in all cases: in vivo
[1] = system: kochia (Kochia scoparia); assay: Test C greenhouse herbicide test, postemergence
Summary of the method: (§1)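 Greenhouse postemergence spray on plants 2–18 cm tall; response judged visually after 13–15 d relative to untreated controls using a 0 (none) to 100 (full control) scale.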

[2] = system: oat, wild (wild oat, Avena fatua); assay: Test C greenhouse herbicide test, postemergence
Summary of the method: as §1

[3] = system: chickweed (common chickweed, Stellaria media); assay: Test C greenhouse herbicide test, postemergence
Summary of the method: as §1

[4] = system: rice (Oryza sativa); assay: Test B flooded paddy test; details: 250 g ai/ha, Flood, visual rating on scale of 0 to 100 where 0 is no effect and 100 is complete control, 13 to 15 d after treatment; for plant injury at 250 g/ha: Oryza sativa, 360 h, read-out: Plant response rating, Rice
Summary of the method: (§2)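 Ratings use a 0-100 visual scale, where 100 is complete control, and compare treated plants with controls after 13 to 15 d of greenhouse growth. Compound went straight into paddy water kept 3 cm over the soil surface, applied to seedlings at the 2-leaf stage.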

[5] = system: sedge, umbrella (small-flower umbrella sedge, Cyperus difformis); assay: Test B flooded paddy test; details: 250 g ai/ha, Flood, visual rating on scale of 0 to 100 where 0 is no effect and 100 is complete control, 13 to 15 d after treatment; for pest or weed control at 250 g/ha: Cyperus difformis, 360 h, read-out: Plant response rating, Sedge, Umbrella
Summary of the method: as §2

[6] = system: barnyardgrass (Echinochloa crus-galli); assay: Test B flooded paddy test; details: 250 g ai/ha, Flood, visual rating on scale of 0 to 100 where 0 is no effect and 100 is complete control, 13 to 15 d after treatment; for pest or weed control at 250 g/ha: Echinochloa crus-galli, 360 h, read-out: Plant response rating, Barnyardgrass
Summary of the method: as §2

[7] = system: ducksalad (Heteranthera limosa); assay: Test B flooded paddy test; details: 250 g ai/ha, Flood, visual rating on scale of 0 to 100 where 0 is no effect and 100 is complete control, 13 to 15 d after treatment; for pest or weed control at 250 g/ha: Heteranthera limosa, 360 h, read-out: Plant response rating, Ducksalad
Summary of the method: as §2

[8] = system: wheat (winter wheat, Triticum aestivum); assay: Test C greenhouse herbicide test, pre- and postemergence
Summary of the method: (§3)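 Visual 0–100 injury score (100 = complete control) taken against untreated controls after 13–15 d in greenhouse. Test chemicals, formulated in solvent plus surfactant, applied preemergence to seeds in loam–sand soil or postemergence to 1- to 4-leaf plants (2–18 cm).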

[9] = system: pigweed (Amaranthus retroflexus); assay: as above
Summary of the method: as §3

[10] = system: johnsongrass (Sorghum halepense); assay: as above
Summary of the method: as §3

[11] = system: blackgrass (Alopecurus myosuroides); assay: Test A greenhouse herbicide test, postemergence
Summary of the method: (§4)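 Seedlings in a loam soil and sand mix received formulated compound postemergence at the one- to two-leaf stage. Greenhouse holding lasts approximately 10 d, then injury is scored visually relative to untreated plants, 0 meaning no effect and 100 complete control.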

[12] = system: galium (catchweed bedstraw, Galium aparine); assay: Test A greenhouse herbicide test, postemergence
Summary of the method: as §4

[13] = Postemergence, 31 g ai/ha, 0 to 100 scale (0 no effect, 100 complete control)
[14] = Postemergence, 125 g ai/ha, scale 0 to 100, 0 is no effect, 100 is complete control
[15] = Postemergence, 250 g ai/ha, scale 0 to 100, 0 no effect, 100 complete control, 13 to 15 d
[16] = postemergence, 62 g ai/ha, scale 0 to 100, 0 no effect, 100 complete control
[17] = Preemergence, 62 g ai/ha, scale 0 to 100, 0 is no effect, 100 is complete control
[18] = Preemergence, 125 g ai/ha, scale 0 to 100, 0 is no effect, 100 is complete control
[19] = Preemergence, 250 g ai/ha, scale 0 to 100, 0 no effect, 100 complete control
[20] = Preemergence, 31 g ai/ha, scale 0 to 100, 0 is no effect, 100 is complete control
[21] = 125 g ai/ha, 0 to 100 scale where 0 is no effect and 100 is complete control
[22] = 500 g ai/ha, visual rating after approx. 10 d, 0 to 100 scale (0 no effect, 100 complete control)
[23] = Postemergence, 31 g ai/ha, scale 0 to 100 (0 no effect, 100 complete control)
[24] = Postemergence, 62 g ai/ha, 0 to 100 scale (0 no effect, 100 complete control)
[25] = postemergence, 125 g ai/ha, scale 0 to 100, 0 no effect, 100 complete control

Cc1cc(C)c2sc(C)c(-c3c(O)c(C)nn(C)c3=O)c2c1 [Compound 2, 5-hydroxy-2,6-dimethyl-4-(2,5,7-trimethylbenzo[b]thien-3-yl)-3(2H)-pyridazinone]
Kochia plant response rating [1, 13]: 50 | Plant response rating, Kochia [1, 14]: 65 | Plant response rating, Kochia [1, 15]: 75 | Kochia plant response rating [1, 16]: 55 | Oat, Wild plant response rating [2, 13]: 75 | Plant response rating, Oat, Wild [2, 14]: 90 | Plant response rating, Oat, Wild [2, 15]: 85 | Oat, Wild plant response rating [2, 16]: 80 | Chickweed plant response rating [3, 13]: 95 | Plant response rating, Chickweed [3, 14]: 95 | Plant response rating, Chickweed [3, 15]: 98 | Chickweed plant response rating [3, 16]: 95 | plant injury at 250 g/ha [4]: 35% | pest or weed control at 250 g/ha [5]: 85% | pest or weed control at 250 g/ha [6]: 30% | pest or weed control at 250 g/ha [7]: 80% | Wheat plant response rating [8, 13]: 0 | Plant response rating, Wheat [8, 14]: 5 | Plant response rating, Wheat [8, 15]: 5 | Plant response rating, Wheat [8, 17]: 0 | Plant response rating, Wheat [8, 18]: 0 | Wheat plant response rating [8, 19]: 10 | Wheat plant response rating [8, 16]: 0 | Pigweed plant response rating [9, 13]: 80 | Plant response rating, Pigweed [9, 14]: 90 | Plant response rating, Pigweed [9, 15]: 98 | Plant response rating, Pigweed [9, 20]: 100 | Plant response rating, Pigweed [9, 17]: 100 | Plant response rating, Pigweed [9, 18]: 100 | Pigweed plant response rating [9, 19]: 100 | Pigweed plant response rating [9, 16]: 60 | Johnsongrass plant response rating [10, 13]: 5 | Plant response rating, Johnsongrass [10, 14]: 5 | Plant response rating, Johnsongrass [10, 15]: 5 | Plant response rating, Johnsongrass [10, 20]: 0 | Plant response rating, Johnsongrass [10, 17]: 0 | Plant response rating, Johnsongrass [10, 18]: 5 | Johnsongrass plant response rating [10, 19]: 5 | Johnsongrass plant response rating [10, 16]: 5

CCc1oc2ccc(C)cc2c1-c1c(O)c(C)nn(C)c1=O [Compound 10, 4-(2-ethyl-5-methyl-3-benzofuranyl)-5-hydroxy-2,6-dimethyl-3(2H)-pyridazinone]
Kochia plant response rating [1, 13]: 60 | Plant response rating, Kochia [1, 14]: 95 | Plant response rating, Kochia [1, 15]: 95 | Kochia plant response rating [1, 16]: 85 | Oat, Wild plant response rating [2, 13]: 5 | Plant response rating, Oat, Wild [2, 14]: 5 | Plant response rating, Oat, Wild [2, 15]: 25 | Oat, Wild plant response rating [2, 16]: 5 | Chickweed plant response rating [3, 13]: 90 | Plant response rating, Chickweed [3, 14]: 90 | Plant response rating, Chickweed [3, 15]: 90 | Chickweed plant response rating [3, 16]: 90 | plant injury at 250 g/ha [4]: 0% | pest or weed control at 250 g/ha [5]: 0% | pest or weed control at 250 g/ha [6]: 0% | pest or weed control at 250 g/ha [7]: 30% | Wheat plant response rating [8, 13]: 0 | Plant response rating, Wheat [8, 14]: 0 | Plant response rating, Wheat [8, 15]: 0 | Plant response rating, Wheat [8, 17]: 0 | Plant response rating, Wheat [8, 18]: 0 | Wheat plant response rating [8, 19]: 0 | Wheat plant response rating [8, 16]: 0 | Pigweed plant response rating [9, 13]: 55 | Plant response rating, Pigweed [9, 14]: 70 | Plant response rating, Pigweed [9, 15]: 95 | Plant response rating, Pigweed [9, 20]: 0 | Plant response rating, Pigweed [9, 17]: 0 | Plant response rating, Pigweed [9, 18]: 10 | Pigweed plant response rating [9, 19]: 30 | Pigweed plant response rating [9, 16]: 60 | Johnsongrass plant response rating [10, 13]: 0 | Plant response rating, Johnsongrass [10, 14]: 5 | Plant response rating, Johnsongrass [10, 15]: 25 | Plant response rating, Johnsongrass [10, 20]: 0 | Plant response rating, Johnsongrass [10, 17]: 0 | Plant response rating, Johnsongrass [10, 18]: 0 | Johnsongrass plant response rating [10, 19]: 0 | Johnsongrass plant response rating [10, 16]: 0

Cc1nn(C)c(=O)c(-c2cccc3ccccc23)c1O [Compound 11, 5-hydroxy-2,6-dimethyl-4-(1-naphthalenyl)-3(2H)-pyridazinone]
Kochia plant response rating [1, 13]: 85 | Plant response rating, Kochia [1, 14]: 100 | Plant response rating, Kochia [1, 15]: 100 | Kochia plant response rating [1, 16]: 95 | Oat, Wild plant response rating [2, 13]: 40 | Plant response rating, Oat, Wild [2, 14]: 60 | Plant response rating, Oat, Wild [2, 15]: 70 | Oat, Wild plant response rating [2, 16]: 45 | Chickweed plant response rating [3, 13]: 60 | Plant response rating, Chickweed [3, 14]: 85 | Plant response rating, Chickweed [3, 15]: 90 | Chickweed plant response rating [3, 16]: 65 | plant injury at 250 g/ha [4]: 0% | pest or weed control at 250 g/ha [5]: 0% | pest or weed control at 250 g/ha [6]: 0% | pest or weed control at 250 g/ha [7]: 0% | Wheat plant response rating [8, 13]: 0 | Plant response rating, Wheat [8, 14]: 5 | Plant response rating, Wheat [8, 15]: 5 | Plant response rating, Wheat [8, 17]: 0 | Plant response rating, Wheat [8, 18]: 0 | Wheat plant response rating [8, 19]: 10 | Wheat plant response rating [8, 16]: 0 | Pigweed plant response rating [9, 13]: 50 | Plant response rating, Pigweed [9, 14]: 90 | Plant response rating, Pigweed [9, 15]: 95 | Plant response rating, Pigweed [9, 20]: 0 | Plant response rating, Pigweed [9, 17]: 100 | Plant response rating, Pigweed [9, 18]: 100 | Pigweed plant response rating [9, 19]: 100 | Pigweed plant response rating [9, 16]: 90 | Johnsongrass plant response rating [10, 13]: 0 | Plant response rating, Johnsongrass [10, 14]: 5 | Plant response rating, Johnsongrass [10, 15]: 5 | Plant response rating, Johnsongrass [10, 20]: 0 | Plant response rating, Johnsongrass [10, 17]: 0 | Plant response rating, Johnsongrass [10, 18]: 0 | Johnsongrass plant response rating [10, 19]: 0 | Johnsongrass plant response rating [10, 16]: 0

COC(=O)Oc1c(C)nn(C)c(=O)c1-c1ccc(Br)c2ccccc12 [Compound 145]
Plant response rating, Blackgrass [11, 21]: 40 | Plant response rating, Blackgrass [11, 22]: 80 | Plant response rating, Galium [12, 21]: 100 | Plant response rating, Galium [12, 22]: 100 | Plant response rating, Kochia [1, 23]: 95 | Kochia plant response rating [1, 24]: 98 | Plant response rating, Kochia [1, 15]: 100 | Kochia plant response rating [1, 25]: 100 | Plant response rating, Oat, Wild [2, 23]: 95 | Oat, Wild plant response rating [2, 24]: 95 | Plant response rating, Oat, Wild [2, 15]: 100 | Oat, Wild plant response rating [2, 25]: 95 | Plant response rating, Rice [4]: 0 | Plant response rating, Sedge, Umbrella [5]: 0 | Plant response rating, Barnyardgrass [6]: 0 | Plant response rating, Ducksalad [7]: 0 | Plant response rating, Wheat [8, 23]: 40 | Wheat plant response rating [8, 24]: 50 | Plant response rating, Wheat [8, 15]: 90 | Plant response rating, Wheat [8, 20]: 0 | Plant response rating, Wheat [8, 17]: 0 | Plant response rating, Wheat [8, 18]: 0 | Wheat plant response rating [8, 19]: 5 | Wheat plant response rating [8, 25]: 85 | Plant response rating, Pigweed [9, 23]: 70 | Pigweed plant response rating [9, 24]: 100 | Plant response rating, Pigweed [9, 15]: 100 | Plant response rating, Pigweed [9, 20]: 70 | Plant response rating, Pigweed [9, 17]: 98 | Plant response rating, Pigweed [9, 18]: 100 | Pigweed plant response rating [9, 19]: 100 | Pigweed plant response rating [9, 25]: 75 | Plant response rating, Johnsongrass [10, 23]: 10 | Johnsongrass plant response rating [10, 24]: 10 | Plant response rating, Johnsongrass [10, 15]: 20 | Plant response rating, Johnsongrass [10, 20]: 10 | Plant response rating, Johnsongrass [10, 17]: 5 | Plant response rating, Johnsongrass [10, 18]: 5 | Johnsongrass plant response rating [10, 19]: 5 | Johnsongrass plant response rating [10, 25]: 20

Source: patent publication US10597388B2, “Pyridazinone herbicides” (FMC CORPORATION, priority 2014, dated 2020)
